Experimental data published in ChEMBL document CHEMBL1158893, “New icetexane and 20 norabietane diterpenes with trypanocidal activity from Dracocephalum komarovi” (2003).
Values after ≈ are worked out from the molar mass of the structure shown.

system: Trypanosoma cruzi; test: Trypanocidal activity against Trypanosoma cruzi epimastigotes; format: functional

SMILES | MLC [µM]
CC(C)c1c(O)c2c(c3c1OCO3)C[C@@]1(O)CCCC(C)(C)[C@@H]1CC2=O [CYCLOCOULTERONE] | 20 (≈ 7.21 µg/mL)
COc1c(O)c2c(c(O)c1C(C)C)C(=O)C[C@H]1[C@]3(C)CCC[C@]21OC3 [DRACOCEPHALONE A] | 200 (≈ 69.3 µg/mL)
CN(C)c1ccc(C(=C2C=CC(=[N+](C)C)C=C2)c2ccc(N(C)C)cc2)cc1.[Cl-] [GENTIAN VIOLET] | 6.3
COC1=C(C(C)C)C(=O)C2=C(C[C@@]34CCCC(C)(C)[C@@H]3C[C@]2(O)O4)C1=O [KOMAROVIQUINONE] | 0.4 (≈ 0.144 µg/mL)
